These results are taken from US8309140B2, “Effect of porcine sheath proteins on the regeneration activity of periodontal ligament” (priority 2005, dated 2012).

“Also recorded” adds a separate entry of the source.

Assay [1] concerns human periodontal ligament (HPDL) cells. As to conditions: cited from earlier work.
The subject of assay [2] is buccal dehiscence type bone defects created along the roots of the canine mandibular premolars. The assay is described as follows: Cementum regeneration (CR) activity, eight-week histological analysis on buccal dehiscence model of dogs. The format is in vivo, beagle dogs. As to conditions: for CR (cementum regeneration) activity: histological analysis eight weeks after application, buccal dehiscence model of dogs. Here is the method: Approximately 2-year-old male beagle dogs (approximate 15 kg) were used to detect the CR activities after the applications of several enamel protein samples. They had intact dentition and a healthy periodontium. The surgical preparation of buccal dehiscence type bone defects was carried out according to the modified method of Hammarström (1997) under general anesthesia induced and maintained by an endotracheal tube with 1.5-2.0% of halothane (Takeda Yakuhin Co. LTD, Osaka, Japan) in 100% oxygen, after premedicated with intramuscular injection of the mixture of Ketamine HCl (9.8 mg/kg: Sankyo Co. LTD, Tokyo, Japan) and Xylazine HCl (0.7 mg/kg: Bayer Co. LTD, Tokyo, Japan).
Contralateral buccal mucoperiosteal flaps were raised after an intracrevicular incision extending from the first mandibular premolar to the first mandibular molar. After the removing the buccal alveolar bone plate covering the mesial root of the second premolars, the exposed periodontal ligament and cementum of these areas were completely removed by means of a dental bur. At the apical end of the defect, a notch was created to identify the apical extension of the defect, when histological analyses. The distance between the cervical margin and the apical end of the defect was standardized at about 5 mm. The exposed root dentin surfaces were conditioned for 2 min with cotton pellets soaked in a 19% EDTA solution, and then carefully rinsed with sterile saline. Then 50 μg of each enamel protein sample in 100 μl of cold sterile distilled water was applied over the entire buccal surface area of the exposed roots. Finally, the mucoperiosteal flaps were repositioned to their level prior to surgery and sutured. Distilled water was used as a negative control and EMDOGAIN® (BIORA AB, Malmö, Sweden) served as a positive control.
After 8 weeks the dogs were terminated by anesthetization with sodium pentobarbital. Their heads were fixed by perfusion with 0.1 M sodium cacodylate buffer (pH 7.4) containing 4% paraformaldehyde and 1% glutaraldehyde. Tissue blocks, which included teeth, bone, and tissue were dissected and demineralized in 10% formic acid containing 0.06 M sodium citrate and 0.1 M citric acid. All specimens were dehydrated using a graded series of alcohols and then embedded in paraffin. Serial sections (5 μm thick) were made and stained with hematoxylin/eosin for examination by light microscopy.
The length and thickness of cementums regenerated after application of fractionated and purified enamel protein samples and EMD were measured on the computer monitor of histological results. The length of the regenerated cementum was straight distance between the apical end of the defect and coronal extention of the new cementum, as well as to the crest of the new alveolar bone. Also, the thickness of cementum was measured at coronal end, apical end and between them.
CR promoting activity of enamel proteins obtained at each extracted and purified step were examined by eight-week histological analysis of buccal dehiscence type bone defects created along the roots of canine mandible (FIG. 1).

Another assay concerns ST2 cells. As to the kind of experiment: ALP inducing activity of ST2 cells on cell culture system. The format is cell-based, mouse. As to conditions: 50 μg/ml protein or peptide; TGF-β1 50 ng/ml, BMP-2 500 ng/ml. From the text:
(§1) Human periodontal ligament (HPDL) cells were obtained according to the method of Somerman et al., (1988) from healthy premolars which were extracted from the patients for orthodontic reasons. The cells were precultured for 4-6 passages with a-MEM medium to establish the primary cell line. The cells were maintained in the alpha modification of Eagle's medium (α-MEM; Life Technologies, Grand Island, N.Y., USA) containing 10% fetal bovine serum (FBS; Asahi Technoglass, Chiba, Japan) and 1% antibiotics (100 U/ml of Penicillin-G and 100 μg/ml of Streptomycin sulfate; Gibco BRL, Grand Island, N.Y., USA) at 37° C. in a humidified 5% CO2 atmosphere. The ST2 cells (Riken Cell Bank, Tsukuba, Japan), an osteoblast-like mouse bone marrow stromal cell line, were cultured under the same conditions.
HPDL cells of approximately 5×10^5 cells per well were distributed in 96-well plates and incubated for 24 h. […] After 96 additional hours of incubation, ALP activity was determined using p-nitrophenylphosphate as a substrate. […]
The ALP inducing activities of synthetic peptides using the cell culture of HPDL cells and ST2 cells were examined. […] The ALP activity was determined after 10 min incubation at 37° C. and the absorbance at 405 nm was read using a plate reader, after adding 0.2 M NaOH to stop the reaction. […]

For assay [3], the system named is human periodontal ligament (HPDL) cells. As to the kind of experiment: ALP inducing activity of HPDL cells on cell culture system. In kind it is cell-based. As to conditions: for ALP activity of HPDL cells (porcine sheath proteins and synthetic peptides): 50 μg/ml protein or peptide, TGF-β1 50 ng/ml, BMP-2 500 ng/ml, 10 nM 1α-25dihydroxy-Vitamin D3.
Text: as §1
HPDL cells were distributed in 96-well plates at a density of approximately 5×10^5 cells per a well and incubated for 24 h. The growth medium was then changed to contain 10 nM of 1α-25dihydroxy-Vitamin D3 (CALBIOCHEM, La Jolla, Calif.) and 50 μg/ml (final concentration) of fractionated enamel protein samples or synthesized peptides dissolved in ultrapure water. After 96 additional hours of incubation, the cells were washed once with PBS, and ALP activity was determined after a 10 min incubation at 37° C. in 10 mM p-nitrophenylphosphate (substrate) in 100 mM 2-amino-2-methyl-1,3-propanediol-HCl buffer (pH 10.0) containing 5 mM MgCl2. After adding 0.2 M NaOH, which stopped the reaction, the absorbance at 405 nm was read on a plate reader.
HPDL cells of approximately 5×10^5 cells per well were distributed in 96-well plates and incubated for 24 h. The growth medium was then changed to contain 10 nM of 1α-25dihydroxy-Vitamin D3 and 50 μg/ml (final concentration) of purified sheath protein or synthesized peptide. After 96 additional hours of incubation, ALP activity was determined using p-nitrophenylphosphate as a substrate.
The bioactivities of these synthetic peptides were tested their cytodifferentiation activity of HPDL cells and ST2 cells by determination of increasing ALP inducing activity on cell culture system. When these peptides applied in cell culture system, the concentration of their peptides was employed around 1 ng/ml. In the case of TGF-1, the concentration was 10 ng/ml.
Normal human periodontal ligament fibroblasts were maintained in an α-minimal essential medium (α-MEM) containing 10% fetal bovine serum, either with or without 10 nM 1α-25dihydroxy-vitamin D3 and 1% antibiotics (100 U/mL of penicillin G and 100 μg/mL of streptomycin sulfate) at 37° C. in a humidified atmosphere of air containing 5% CO2. Another cell line, ST2 cells, was obtained from an osteoblast-like mouse bone marrow stromal cell line. These cells were cultured in the same conditions as those described above.
The ALP inducing activities of synthetic peptides using the cell culture of HPDL cells and ST2 cells were examined. The HPDL cells were distributed in 96-well plates at a density of approximately 5×10^5 cells per well and incubated for 24 h. The medium was then changed to α-MEM containing 10 nM of 1α-25dihydroxy-vitamin D3 and either synthetic peptides or growth factors dissolved in ultra-pure water. After 96 h of incubation, the cells were washed once with phosphate-buffered saline, and 10 mM ρ-nitrophenylphosphate in 100 mM 2-amino-2-methel-1,3-propanediol-HCl buffer (pH 10.0) containing 5 mM MgCl2 was added. The ALP activity was determined after 10 min incubation at 37° C. and the absorbance at 405 nm was read using a plate reader, after adding 0.2 M NaOH to stop the reaction. […] When the synthetic peptides were applied in the cell culture system, their final concentrations were 25 or 50 μg/mL. A TGF-β1 receptor inhibitor (SB431542, 10 μM) was applied to the HPDL cell culture system to examine their influence relative to the ALP inducing activity of the synthetic peptides.

The next assay concerns HPDL cells. As to the kind of experiment: Mineralization activity of HPDL cells (alizarin red S staining, calcium content). As to conditions: 30 days culture; 1 μg/ml of samples; differentiation medium. The format is cell-based, human. Here is the method: The HPDL cells were plated in 24-well plates at an initial density of 1×10^5 cells/well. After 24 h of incubation, the medium was replaced with growth medium containing 50 μM ascorbic acid, 10 mM β-glycerophosphate, and 10 nM 1α,25-dihydroxyvitamin D3 (differentiation medium) and 1 μg/ml of samples. The medium was changed every 72 h. The cells were maintained for 30 days and then the medium was discarded.
The compartments of cells were fixed in 100% methanol, stained with alizarin red S for 10 min, then washed with ultrapure water and photographed to examine the biomineralization activity. The staining solution was 1% alizarin red S (sodium alizarin sulfonate) (Sigma) dissolved in ultrapure water and adjusted to pH 6.4 with 0.1N ammonium hydroxide.
For measuring the calcium content, the compartments of cells were dissolved by 0.5N hydrochloric acid. The resulting solution was measured by a Calcium C-test kit and protocol (Wako Pure Chemical Industries Ltd, Osaka, Japan). The absorbance at 570 nm was read on a plate reader.
The HPDL cells were plated in 24-well plates at an initial density of 1×10^5 cells/well. After 24 h of incubation, the medium was replaced with growth medium containing 50 μM ascorbic acid, 10 mM β-glycerophosphate, and 10 nM 1α,25-dihydroxyvitamin D3 (differentiation medium) and 1 μg/ml of samples. The medium was changed every 72 h and the cells were maintained for 30 days. The biomineralization activity was examined by staining with alizarin red S and measuring calcium content.
The HPDL cells were plated in six-well plates at an initial density of 1×10^5 cells per well. […]
For Alizarin Red S staining, the compartments of 28 d cultured cells were fixed in 100% methanol, stained with Alizarin Red S for 10 min, then washed with ultra-pure water and photographed. […] The resulting solution was measured using a Calcium C-test kit and protocol. The absorbance at 570 nm was read with a plate reader. […]

As for “QVEGPMVQQQVAPSEK (16 aa from 131 to 146 in sequence 10; listed as Sus scrofa) [P-1]”, the “ALP inducing activity among porcine ESP synthetic peptides (previous study)” value in assay [1] is given as “highest ALP inducing activity among all the porcine ESP synthetic peptides tested”.

For “TGF-β1: recombinant growth factor, positive control [reference compound]”, the “CR (cementum regeneration) activity” value in assay [2] is listed as “shown to have the same activity”. In the assay with ST2 cells, the “ALP activity of ST2 cells (porcine sheath proteins and synthetic peptides)” value is listed as “not stimulated”. Moreover, in assay [3] (10 μM SB431542, 10 nM 1α-25dihydroxy-vitamin D3), the “ALP inducing activity of HPDL cells when adding TGF-β1 receptor inhibitor SB431542” value was “inhibited distinctly”. Besides, the “ALP activity of HPDL cells (porcine sheath proteins and synthetic peptides)” value in assay [3] (96 h) was “further increased”. For the same molecule, the “concentration for increasing ALP inducing activity of HPDL cells, molar” value in assay [3] (calculated from molecular weight (TGF-β1 25 kDa; peptides average 1.5 kDa)) is given as 0.4 nM/liter. In assay [3] (cell culture system), the “apt concentration for increasing ALP inducing activity of HPDL cells” value is listed as “around 10 ng/ml”. Also, the “ALP inducing activity of HPDL cells (Example 4)” value in assay [3] (peptides 50 μg/mL, TGF-β1 1 ng/mL, BMP-2 1 μg/mL, 10 nM 1α-25dihydroxy-vitamin D3, 96 h) is listed as “enhanced in a dose-dependent manner; also recorded: increased”.

For “FADPQGPSLPGMDF (14 aa from 157 to 170 in sequence 11; listed as Homo sapiens) [H-3]”, the “induction of mineralization of HPDL cells (Example 3)” value with HPDL cells is on record as “enhanced the induction of mineralization”. For the same molecule, in assay [3] (peptides around 1 ng/ml, TGF-β1 10 ng/ml), the “ALP activity of HPDL cells (human synthetic peptides, Example 3)” value is reported as “enhanced dose dependently”.

B1: 15 kDa sheath protein: N-terminal cleavage product of sheathlin containing 130 amino acids, lacks C-terminal 40 amino acids of 17 kDa sheath protein (protein)
chain: VPAFPRQPGTPGVASLSLETMRQLGSLQGLNMLSQYSRFGFGKSFNSLWMHGLLPPHSSFQWMRPREHETQQYEYSLPVHPPPLPSQPSLQPQQPGQKPFLQPTVVTSIQNPVQKGVPQPPIYQGHPPLQ
Turning to B1, the “thickness of regenerated cementum” value in assay [2] (eight weeks following application, measured at 3 points (apical, middle, coronal), beagle dogs) is reported as 8.13±2.06 μm. For the same molecule, the “CR (cementum regeneration) activity” value in assay [2] was “scarce CR activity”. Besides, the “ALP activity of HPDL cells (porcine sheath proteins and synthetic peptides)” value is reported as “showed the increase of ALP inducing activity than that of 13 kDa sheath protein” in assay [3] (96 h) and “not” in assay [3] (96 h, listed as 15-kDa sheath protein).

B2: 13 kDa sheath protein: sheath protein containing the 99 amino acids extending from M32 to Q130 (protein)
chain: MLSQYSRFGFGKSFNSLWMHGLLPPHSSFQWMRPREHETQQYEYSLPVHPPPLPSQPSLQPQQPGQKPFLQPTVVTSIQNPVQKGVPQPPIYQGHPPLQ
Take B2: the “CR (cementum regeneration) activity” value in assay [2] was “do not exhibit any cementum regeneration activity”. Further, the “ALP activity of HPDL cells (porcine sheath proteins and synthetic peptides)” value in assay [3] (96 h) is on record as “not”.
